Assay results taken from patent US10526347B2, “3-(3H-imidazo[4,5-B]pyridin-2-yl)-1H-pyrazolo[3,4-B]pyridine and therapeutic uses thereof” (Samumed, LLC, priority 2014, dated 2020).
pEC50, pIC50: −log10 of the molar value.

Columns and labels:
Format in all cases: cell-based
[1] = system: Wnt activity (SW480 colon carcinoma cells stably expressing the Sp5-Luc reporter gene); experiment: Sp5-Luc reporter gene screening assay for Wnt activity; details: Homo sapiens
In short: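 The SW480 cells carry a lentiviral luciferase reporter driven by a Sp5 promoter with eight TCF/LEF sites. They were plated at 10,000 cells/well in 10% FCS overnight, then pinned with 50 nl of 3-fold dilutions (10 mM top source concentration) into 50 μl.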

[2] = system: primary human mesenchymal stem cells (hMSCs); experiment: Chondrogenesis induction in primary human mesenchymal stem cells (chondrogenic nodules, Rhodamine B / Nile Red); details: 6 days; for EC (100% of TGF-beta3 activity): Homo sapiens, Mesenchymal stem cells, 144 h, concentration required to induce chondrogenesis equivalent to TGF-β3 10 ng/mL, read-out: Conc (nM) of 100% TGF-β3 activity
Method: The above synthesized compounds were screened using primary human mesenchymal stem cells (hMSCs) to determine their ability to induce chondrogenesis (process by which cartilage is developed).
Primary human mesenchymal stem cells (hMSCs) were purchased from Lonza (Walkersville, Md.) and expanded in Mesenchymal Stem Cell Growth Media (Lonza). Cells between passage 3 and 6 were used for the experiments.
Each compound was dissolved in DMSO as a 10 mM stock and used to prepare compound source plates. Serial dilution (1:3, 6-point dose-response curves from 2700 nM to 10 nM) and compound transfer was performed using the ECHO 550 (Labcyte, Sunnyvale, Calif.) into 96-well clear bottom assay plates (Greiner Bio-One) with appropriate DMSO backfill for a final DMSO concentration of 0.03%. hMSCs were plated at 20,000 cells/well in 250 μL/well Incomplete Chondrogenic Induction Medium (Lonza; DMEM, dexamethasone, ascorbate, insulin-transferrin-selenium [ITS supplement], gentamycin-amphotericin [GA-1000], sodium pyruvate, proline and L-glutamine). TGF-β3 (10 ng/mL) was used as a positive control for differentiation while negative control wells were treated with 75 nL DMSO for normalization and calculating EC50 values. Cells were incubated at 37° C. and 5% CO2 for 6 days. To image chondrogenic nodules, the cells were fixed using 4% formaldehyde (Electron Microscopy Sciences), and stained with 2 μg/mL Rhodamine B (Sigma-Aldrich) and 20 μM Nile Red (Sigma-Aldrich) [Johnson K., et. al, A Stem Cell-Based Approach to Cartilage Repair, Science, (2012), 336(6082). 717-721]. The nodules imaged (4 images per well at 4× magnification) by excitation at 531 nm and emission at 625 nm and quantified using the CellInsight CX5 (Thermo Scientific). Number of nodules in each well was normalized to the average of 3 DMSO treated wells on the same plate using Excel (Microsoft Inc.). The normalized averages (fold change over DMSO) of 3 replicate wells for each compound concentration were calculated. Due to solubility limitations of some of the compounds, curve fitting was incomplete leading to inaccurate EC50 determinations.
Using TGF-β3 as a positive control, the concentration of test compounds required to induce equivalent levels of chondrogenesis is reported. In addition, the maximum activity of each compound and the respective dose that each compound reached maximum chondrogenesis activity is reported.

[3] = system: primary human fibroblasts derived from IPF patients (LL29 cells); experiment: Inhibition of the fibrotic process in TGF-β1 treated IPF patient fibroblasts (αSMA staining); details: Fibroblast, 96 h, LL29 cells treated with TGF-β1 (20 ng/mL), 4 days, read-out: Inhibition of fibrosis EC50
Description: The above synthesized compounds were screened using primary human fibroblasts (derived from IPF patients) treated with TGF-β1 to determine their ability to inhibit the fibrotic process.
Primary human fibroblasts derived from IPF patients (LL29 cells) [^1Xiaoqiu Liu, et. al., “Fibrotic Lung Fibroblasts Show Blunted Inhibition by cAMP Due to Deficient cAMP Response Element-Binding Protein Phosphorylation”, Journal of Pharmacology and Experimental Therapeutics (2005), 315(2), 678-687; ^2Watts, K. L., et. al., “RhoA signaling modulates cyclin D1 expression in human lung fibroblasts; implications for idiopathic pulmonary fibrosis”, Respiratory Research (2006), 7(1), 88] were obtained from American Type Culture Collection (ATCC) and expanded in F12 medium supplemented with 15% Fetal Bovine Serum and Penicillin/Streptomycin.
Each compound was dissolved in DMSO as a 10 mM stock and used to prepare compound source plates. Serial dilution (1:2, 11-point dose-response curves from 10 μM to 1.87 nM) and compound transfer was performed using the ECHO 550 (Labcyte, Sunnyvale, Calif.) into 384-well clear bottom assay plates (Greiner Bio-One) with appropriate DMSO backfill for a final DMSO concentration of 0.1%. LL29 cells were plated at 1,500 cells/well in 80 μl/well F12 medium supplemented with 1% Fetal Bovine Serum. One hour after addition of the cells, TGF-β1 (Peprotech; 20 ng/mL) was added to the plates to induce fibrosis (ref. 1 and 2 above). Wells treated with TGF-β1 and containing DMSO were used as controls. Cells were incubated at 37° C. and 5% CO2 for 4 days. Following incubation for 4 days, SYTOX green nucleic acid stain (Life Technologies [Thermo Fisher Scientific]) was added to the wells at a final concentration of 1 uM and incubated at room temperature for 30 min. Cells were then fixed using 4% formaldehyde (Electron Microscopy Sciences), washed 3 times with PBS followed by blocking and permeabilization using 3% Bovine Serum Albumin (BSA; Sigma) and 0.3% Triton X-100 (Sigma) in PBS. Cells were then stained with antibody specific to α-smooth muscle actin (αSMA; Abcam) (ref. 1 and 2 above) in 3% Bovine Serum Albumin (BSA; Sigma) and 0.3% Triton X-100 (Sigma) in PBS, and incubated overnight at 4° C. Cells were then washed 3 times with PBS, followed by incubation with Alexa Flor-647 conjugated secondary antibody (Life Technologies [Thermo Fisher Scientific]) and DAPI at room temperature for 1 hour. Cells were then washed 3 times with PBS and plates were sealed for imaging. αSMA staining was imaged by excitation at 630 nm and emission at 665 nm and quantified using the Compartmental Analysis program on the CellInsight CX5 (Thermo Scientific). Dead or apoptotic cells were excluded from analysis based on positive SYTOX green staining. % of total cells positive for αSMA were counted in each well and normalized to the average of 11 wells treated with TGF-β1 on the same plate using Dotmatics' Studies Software. The normalized averages (fold change over untreated) of 3 replicate wells for each compound concentration were used to create dose-responses curves and EC50 values were calculated using non-linear regression curve fit in the Dotmatics' Studies Software. The EC50 values are reported.

| SMILES | pIC50 [1] | EC (100% of TGF-beta3 activity) [2] [nM] | Max. Activity as % TGF-β3 activity ([2]; positive control TGF-β3 10 ng/mL, nodule number normalized to DMSO) [%] | pEC50 [3] |
| --- | --- | --- | --- | --- |
| Cc1cn(-c2ccnc3[nH]c(-c4n[nH]c5ncc(-c6cncc(NC(=O)CC(C)C)c6)cc45)nc23)cn1 [Compound 160, 3-Methyl-N-(5-(3-(7-(4-methyl-1H-imidazol-1-yl)-3H-imidazo[4,5-b]pyridin-2-yl)-1H-pyrazolo[3,4-b]pyridin-5-yl)pyridin-3-yl)butanamide] | 8.08 | 26.8 | – | – |
| Cc1ncc(-c2cnc3[nH]nc(-c4nc5c(-c6cccc(F)c6)ccnc5[nH]4)c3c2)n1C [Compound 913, 5-(1,2-Dimethyl-1H-imidazol-5-yl)-3-(7-(3-fluorophenyl)-3H-imidazo[4,5-b]pyridin-2-yl)-1H-pyrazolo[3,4-b]pyridine] | 7.18 | 117 | 300 | 6.67 |
| O=C(Nc1cncc(-c2cnc3[nH]nc(-c4nc5c(-c6ccc(F)cc6)ccnc5[nH]4)c3c2)c1)C1CCC1 [Compound 38, N-(5-(3-(7-(4-Fluorophenyl)-3H-imidazo[4,5-b]pyridin-2-yl)-1H-pyrazolo[3,4-b]pyridin-5-yl)pyridin-3-yl)cyclobutanecarboxamide] | 7.94 | 48.6 | – | 6.93 |
| Cc1ccc(-c2ccnc3[nH]c(-c4n[nH]c5ncc(-c6cncc(N)c6)cc45)nc23)s1 [Compound 339, 5-(3-(7-(5-Methylthiophen-2-yl)-3H-imidazo[4,5-b]pyridin-2-yl)-1H-pyrazolo[3,4-b]pyridin-5-yl)pyridin-3-amine] | 8.59 | 43.2 | – | 7.40 |
| CC(C)Nc1cncc(-c2cnc3[nH]nc(-c4nc5c(-c6cccnc6)ccnc5[nH]4)c3c2)c1 [Compound 75, N-Isopropyl-5-(3-(7-(pyridin-3-yl)-3H-imidazo[4,5-b]pyridin-2-yl)-1H-pyrazolo[3,4-b]pyridin-5-yl)pyridin-3-amine] | 7.34 | 58.5 | – | – |
| CCCCC(=O)Nc1cncc(-c2cnc3[nH]nc(-c4nc5c(-c6cc(F)cc(NCCN(C)C)c6)ccnc5[nH]4)c3c2)c1 [Compound 432, N-(5-(3-(7-(3-((2-(Dimethylamino)ethyl)amino)-5-fluorphenyl)-3H-imidazo[4,5-b]pyridin-2-yl)-1H-pyrazolo[3,4-b]pyridin-5-yl)pyridin-3-yl)pentanamide] | 7.66 | 57 | – | – |
| Cc1ccncc1-c1cnc2[nH]nc(-c3nc4c(-c5ccncc5)ccnc4[nH]3)c2c1 [Compound 91, 5-(4-Methylpyridin-3-yl)-3-(7-(pyridin-4-yl)-3H-imidazo[4,5-b]pyridin-2-yl)-1H-pyrazolo[3,4-b]pyridine] | < 5.00 | – | – | ≤ 5.00 |
| Cc1ccc(-c2ccnc3[nH]c(-c4n[nH]c5ncc(-c6cncc(CN7CCCCC7)c6)cc45)nc23)s1 [Compound 351, 3-(7-(5-Methylthiophen-2-yl)-3H-imidazo[4,5-b]pyridin-2-yl)-5-(5-(piperidin-1-ylmethyl)pyridin-3-yl)-1H-pyrazolo[3,4-b]pyridine] | < 5.00 | – | – | ≤ 5.00 |
| CN(C)Cc1cncc(-c2cnc3[nH]nc(-c4nc5c(N6CCCCC6)ccnc5[nH]4)c3c2)c1 [Compound 145, N,N-Dimethyl-1-(5-(3-(7-(piperidin-1-yl)-3H-imidazo[4,5-b]pyridin-2-yl)-1H-pyrazolo[3,4-b]pyridin-5-yl)pyridin-3-yl)methanamine] | 5.55 | – | – | 5.84 |
| CC(=O)c1ccc(-c2ccnc3[nH]c(-c4n[nH]c5ncc(-c6cncc(NC(=O)C7CCCCC7)c6)cc45)nc23)s1 [Compound 384, N-(5-(3-(7-(5-Acetylthiophen-2-yl)-3H-imidazo[4,5-b]pyridin-2-yl)-1H-pyrazolo[3,4-b]pyridin-5-yl)pyridin-3-yl)cyclohexanecarboxamide] | < 5.00 | – | – | ≤ 5.00 |
| CN(C)Cc1cncc(-c2cnc3[nH]nc(-c4nc5c(-c6cccc(F)c6)ccnc5[nH]4)c3c2)c1 [Compound 10, 1-(5-(3-(7-(3-Fluorophenyl)-3H-imidazo[4,5-b]pyridin-2-yl)-1H-pyrazolo[3,4-b]pyridin-5-yl)pyridin-3-yl)-N,N-dimethylmethanamine] | < 5.00 | – | – | 5.59 |
| Cc1ccc(-c2ccnc3[nH]c(-c4n[nH]c5ncc(-c6cncc(NC(=O)C7CCCC7)c6)cc45)nc23)s1 [Compound 357, N-(5-(3-(7-(5-Methylthiophen-2-yl)-3H-imidazo[4,5-b]pyridin-2-yl)-1H-pyrazolo[3,4-b]pyridin-5-yl)pyridin-3-yl)cyclopentanecarboxamide] | 8.10 | – | – | 5.86 |
| O=C(Nc1cncc(-c2cnc3[nH]nc(-c4nc5cccnc5[nH]4)c3c2)c1)C1CCCCC1 [Compound 228, N-(5-(3-(3H-Imidazo[4,5-b]pyridin-2-yl)-1H-pyrazolo[3,4-b]pyridin-5-yl)pyridin-3-yl)cyclohexanecarboxamide] | < 5.00 | – | – | ≥ 8.05 |
| Cc1ccncc1-c1cnc2[nH]nc(-c3nc4c(-c5ccsc5)ccnc4[nH]3)c2c1 [Compound 237, 5-(4-Methylpyridin-3-yl)-3-(7-(thiophen-3-yl)-3H-imidazo[4,5-b]pyridin-2-yl)-1H-pyrazolo[3,4-b]pyridine] | 7.67 | – | – | 6.55 |
| COc1cncc(-c2cnc3[nH]nc(-c4nc5c(-c6cccc(F)c6)ccnc5[nH]4)c3c2)c1 [Compound 920, 3-(7-(3-Fluorophenyl)-3H-imidazo[4,5-b]pyridin-2-yl)-5-(5-methoxypyridin-3-yl)-1H-pyrazolo[3,4-b]pyridine] | 5.98 | – | – | ≥ 8.05 |
| Fc1cccc(-c2ccnc3[nH]c(-c4n[nH]c5ncc(-c6ccncc6)cc45)nc23)c1 [Compound 924, 3-(7-(3-Fluorophenyl)-3H-imidazo[4,5-b]pyridin-2-yl)-5-(pyridin-4-yl)-1H-pyrazolo[3,4-b]pyridine] | < 5.00 | – | – | ≤ 5.00 |
